Laboratory results taken from patent publication US11725107B2, “Polylysine polymers with antimicrobial and/or anticancer activity” (International Business Machines Corporation, priority 2019, dated 2023).

Tested on: K. pneumoniae
Experiment: Antimicrobial activity (MIC) of polymers and antibiotics individually
Format: cell-based
Conditions: Klebsiella pneumoniae, agents individually
From the text: As depicted in FIGS. 1-5, “m” can represent a number that is, for example, greater than or equal to 5 and less than or equal to 30, and/or “n” can represent a number that is, for example, greater than or equal to 0 and less than or equal to 25. Additionally, the “*” can represent: one or more repetitions of all and/or parts of the structures shown, one or more hydrogens, an alkyl group, an aryl group, a combination thereof, and/or the like. Unless otherwise stated, materials utilized to facilitate the experiments, tables, charts, diagrams, and/or the like described herein can be acquired from the following sources. The bacteria Staphylococcus aureus (“S. aureus”, ATCC 29737), Escherichia coli (“E. coli”, ATCC 25922), Pseudomonas aeruginosa (“P. aeruginosa”, ATCC 9027), Candida albicans (“C. albicans”, ATCC 10231), and/or Klebsiella pneumoniae (“K. pneumoniae”, ATCC700603) were acquired from American Type Culture Collection (“ATCC”).
Further, Table 1, presented below, can depict the antimicrobial activity of the guanidinium functionalized polylysine polymers and/or antibiotics individually with regards to K. pneumoniae.

| SMILES | MIC |
| --- | --- |
| CO/N=C(\C(=O)N[C@@H]1C(=O)N2C(C(=O)O)=C(CSC(=O)c3ccco3)CS[C@H]12)c1csc(N)n1 [Ceftiofur] | 4 to 8 µg/mL |
| CN(C)[C@@H]1C(O)=C(C(N)=O)C(=O)[C@@]2(O)C(O)=C3C(=O)c4c(O)ccc(Cl)c4[C@@](C)(O)[C@H]3C[C@@H]12 [Chlortetracycline] | 15.6 µg/mL |
| CCN1CCN(c2cc3c(cc2F)c(=O)c(C(=O)O)cn3C2CC2)CC1 [Enrofloxacin] | 1 µg/mL |
| CO[C@H]1/C=C/O[C@@]2(C)Oc3c(C)c(O)c4c(O)c(c(/C=N/N5CCN(C)CC5)c(O)c4c3C2=O)NC(=O)/C(C)=C\C=C\[C@H](C)[C@H](O)[C@@H](C)[C@@H](O)[C@@H](C)[C@H](OC(C)=O)[C@@H]1C [Rifampicin] | 31.3 µg/mL |
